From US20070154457A1, “Use of eIF-5A to kill multiple myeloma cells” (Senesco Technologies, Inc., priority 2005, published 2007)
Starred links: 1 amine or outer side, 2 acyl side, 3 side chain; linkers in the order of their positions; H or OH if unused. Positions of bridges follow the written chain, without caps; N, C: chain ends. Non-standard residues stand in square brackets, D forms with d. Residues, ends and D or L forms follow the SMILES beside them. Chains are numbered I, II in the order given. Actinocin(9to1) = Cc1c2oc3c(C)ccc(C(=O)[*:1])c3nc-2c(C(=O)[*:2])c(N)c1=O; NMeV = CN[C@H](C(=O)O)C(C)C; Sar = CNCC(=O)O

What was measured:
eIF5A1 [1] = experiment: 2-D gel electrophoresis and Western blot of eIF5A1 forms in HT-29 cells; format: cell-based, human; conditions: HT-29, beginning 1 hour after treatment, disappearing 24 hours after treatment
Procedure: For 2-D gel electrophoresis, HT-29 cell lysate was harvested in cold lysis buffer (7M Urea, 2M Thiourea, 30 mM Tris, 4% CHAPS, protease inhibitor cocktail), sonicated and cleared of debris by centrifugation. Protein concentration was determined using the Bradford method. The first dimensional isolelectric focusing was performed with the Ettan IPGphor Isoelectric Focusing System (Amersham Biosciences) according to the manufacture's instruction. Immobiline DryStrips (7 cm pH 4-7; Amersham Biosciences) were rehydrated in rehydration buffer (8M Urea, 2% CHAPS, 0.2% DTT, 0.5% pH 4-7 IPG buffer, 0.002% Bromophenol blue) along with cell lysate at room temperature for 12 hours. The isoelectric focusing was performed at 500 V for 30 min, 1000 V for 30 min, and 5000 V for 1 hour and 40 min. The protein on the IPG strip gel was then separated by SDS-PAGE and transferred to a PVDF membrane (Amersham Biosciences). Western blotting was performed using eIF5A antibody (BD Biosciences).

eIF5A1 [2] = experiment: Indirect immunofluorescence localization of eIF5A1 in HT-29 cells; format: cell-based, human
Procedure: HT-29 cells were cultured on poly-L-lysine-coated glass coverslips. Subconfluent cells were incubated for 16 hours with 200 Units of interferon gamma (IFN-γ; Roche Applied Science) followed by TNF-α (100 ng/ml; Leinco Technologies) for times varying from 10 minutes to 8 hours. Alternatively, cells were treated with 1.0 μg/ml Actinomycin D for increasing lengths of time from 30 minutes to 16 hours. The treated cells were fixed with 3% formaldehyde (methanol-free; Polysciences Inc.) for 20 minutes, washed twice for 5 minutes with PBS and once for 5 minutes with PBS containing 100 mM glycine, and permeabilized with 0.2% Triton X-100 in PBS for 4 minutes. Cells were then labeled for immunofluorescence using a standard protocol. The primary antibody was anti-eIF5A (BD Transduction Laboratories; mouse IgG) incubated at a dilution of 1:250 for 1 hour. The secondary antibody was anti-mouse IgG-AlexaFluor 488 (Molecular Probes) used at a dilution of 1:200 for 1 hour. Following antibody labeling, the nuclei were stained with Hoescht 33258, and the labeled cells were observed by fluorescent microscopy.

eIF5A1 [3] = experiment: Western blot of eIF5A1 expression in normal colon fibroblasts; format: cell-based; conditions: 0.5 μg/ml, 24 hours
Procedure: Protein for Western blotting was isolated using boiling lysis buffer [2% SDS, 50 mM Tris-HCl (pH 7.4)]. Protein concentrations were determined using the Bicinchoninic Acid Kit (Sigma). For Western blotting, 5 μg of total protein was fractionated on a 12% SDS-polyacrylamide gel and transferred to a polyvinylidene difluoride membrane. The primary antibodies used were anti-eIF5A (BD Transduction Laboratories; mouse IgG) and anti-β-actin (Oncogene; mouse IgM), both at a dilution of 1:20,000 in 5% milk. The secondary antibodies were anti-mouse IgG conjugated to horseradish peroxidase (HRP; Sigma) and anti-mouse IgM-HRP (Oncogene). Antibody-protein complexes were visualized using the enhanced chemiluminescence method (ECL, Amersham Biosciences). Following detection of eIF5A, the blots were stripped according to the protocol provided by the ECL Plus Western blotting detection system and reprobed with anti-β-actin antibody to confirm equal loading.

HT-29 cells = experiment: XTT and BrdU cell proliferation assays of HT-29 cells (siRNA, GC7); format: cell-based, human; conditions: 50 μM for 72 hours, BrdU incorporation
Procedure: HT-29 cells were transfected with siRNA on 96-well plates using Lipofectamine 2000 (Invitrogen). Metabolic activity of proliferating cells was measured with the XTT Cell Proliferation Kit (Roche Applied Science). The BrdU Cell Proliferation Kit (Roche Applied Science) was used to measure DNA synthesis following the manufacturer's protocol. For XTT assays performed following adenovirus infection, 5000 cells were plated per well in a 96-well plate. The next day cells were infected with Ad-lacZ, Ad-eIF5A1 and Ad-eIF5A1(K50A) (Ad-eIF5A1M) respectively with untreated cells as negative control and Actinomycin D treated cell as positive control. XTT substrate was added and A475 nm was measured with A690 nm as the reference.

p53 = experiment: Western blot of p53 and phosphorylated p53 in A549 cells; format: cell-based; conditions: A549, inhibitor added 4 hours after infection (U1026 10 μM, Pifithrin-a 30 μM)
Procedure: (§1) Western blotting of lysate from A549 cells used for MAPK/SAPK pathway analysis was performed using lysate collected in MAPK lysis buffer (10 mM Tris-pH 7.4, 2% SDS, 10% glycerol). Ten micrograms of lysate was separated on 10% SDS-PAGE gels and transferred to a PVDF membrane. The membrane was blocked for one hour in 5% non-fat skim milk in PBS, washed with PBS and incubated with primary antibody at 1:1000 in 5% BSA/PBS-T overnight at 4° C. with shaking. The MAPK/SAPK antibodies (P-p38, p38, P-JNK, JNK, P-ERK, ERK, p90RSK) were purchased from Cell Signaling. The p53 antibodies used in the A549 study were also obtained from Cell Signaling and used in a similar fashion.
A549 lung carcinoma cells were infected with either an adenovirus expressing LacZ (Lac) or eIF5A1 (5A). Four hours after infection, the media was replaced with media containing either DMSO, 10 μM of the p38 inhibitor SB203580 (Calbiochem), 10 μM of the JNK inhibitor II (Calbiochem), 10 μM of the MEK inhibitor U1026 (Calbiochem), or 30 μM of the p53 inhibitor Pifithrin-a (Calbiochem). Forty-eight hours later, the cells were treated with EGF for 30 minutes and the cell lysate was harvested. Western blots were performed on the lysate using antibodies directed against either total p53 (p53), or p53 phosphorylated on serine 15 [P-p53(ser15)], or p53 phosphorylated on 37 [P-p53(ser37)].

[4] = test system: A549 lung carcinoma cells; experiment: Annexin/PI apoptosis by flow cytometry, A549 cells; format: cell-based; conditions: A549 infected with Ad-eIF5A1; JNK inhibitor II 10 μM, U1026 10 μM, Pifithrin-a 30 μM
Procedure: A549 lung carcinoma cells were infected with either an adenovirus expressing LacZ (Lac) or eIF5A1 (5A). Four hours after infection, the media was replaced with media containing either DMSO, 10 μM of the p38 inhibitor SB203580 (Calbiochem), 10 μM of the JNK inhibitor II (Calbiochem), 10 μM of the MEK inhibitor U1026 (Calbiochem), or 30 μM of the p53 inhibitor Pifithrin-a (Calbiochem). Forty-eight hours later, the cells were harvested and the percentage of cells undergoing apoptosis was determined by Annexin/PI staining (BD Bioscience) followed by analysis by flow cytometry.

[5] = test system: MAPK/SAPK signaling pathways; experiment: Western blot of MAPK/SAPK pathway activation in A549 cells; format: cell-based; conditions: A549 infected with Ad-eIF5A1 or Ad-eIF5A1(K50A), with MEK1 inhibitor
Procedure: as §1
HT-29 cells were infected with 3000 infectious units per cell and experiments with A549 cells were performed using 1500 infectious units per cell.

Cc1c2oc3c(C)ccc(C(=O)N[C@@H]4C(=O)N[C@H](C(C)C)C(=O)N5CCC[C@H]5C(=O)N(C)CC(=O)N(C)[C@@H](C(C)C)C(=O)O[C@@H]4C)c3nc-2c(C(=O)N[C@@H]2C(=O)N[C@H](C(C)C)C(=O)N3CCC[C@H]3C(=O)N(C)CC(=O)N(C)[C@@H](C(C)C)C(=O)O[C@@H]2C)c(N)c1=O [Actinomycin D] (I: T[dV]P[Sar][NMeV] / II: T[dV]P[Sar][NMeV]; ester I:1-I:C, II:1-II:C; linker I:N-II:N via Actinocin(9to1))
deoxyhypusinated form of eIF5A1 (eIF5A1 [1]): increase in the presence of the deoxyhypusinated form of eIF5A1
time to shift of eIF5A1 from cytoplasmic to nuclear localization (eIF5A1 [2]): ≤ 90 min
eIF5A1 protein expression (eIF5A1 [3]): up-regulated

N=C(N)NCCCCCCCN [GC7, N1-guanyl-1,7-diaminoheptane]
effect on the growth of the cells (HT-29 cells): profound effect on the growth

Pifithrin-a
effect of inhibitor on Ad-eIF5A1-induced accumulation and phosphorylation of p53 (p53): inhibited
effect of inhibitor on apoptosis induced by eIF5A1 [4]: decreases apoptosis

N#CC(=C(/N)Sc1ccccc1N)/C(C#N)=C(/N)Sc1ccccc1N [U1026]
activation of JNK [5]: inhibited the activation of JNK
p38 activation [5]: increased p38 activation
effect of inhibitor on Ad-eIF5A1-induced accumulation and phosphorylation of p53 (p53): inhibited
effect of inhibitor on apoptosis induced by eIF5A1 [4]: increases apoptosis

O=C1c2ccccc2-c2n[nH]c3cccc1c23 [JNK inhibitor II]
effect of inhibitor on apoptosis induced by eIF5A1 [4]: increases apoptosis
